Data as given in patent publication US7294715B2, “Aporphine and oxoaporphine compounds and pharmaceutical use thereof” (Lotus Pharmaceutical Co., Ltd., priority 2003, dated 2007).
Marks after values point to notes of the source that are not given here.

Tests used:
[1] = system: Langendorff perfused rat hearts; assay: Coronary flow in Langendorff perfused rat hearts; conditions: FIG. 3
Procedure: Adult male Wistar rats weighing 275-325 g, were intraperitoneally anesthetized with sodium pentobarbital (50 mg·kg^−1) and given heparin (300 Ukg·kg^−1) by the same route. Hearts were rapidly excised and immersed in 37° C. perfusion medium. The aorta was cannulated and retrograde-perfused at 80 mmHg with Tyrode's solution containing 120 mM NaCl, 25 mM NaHCO3, 3 mM KCl, 1.2 mM NaH2PO4, 2.5 mM CaCl2, 1.2 mM MgCl2, and […] 5.5 mM glucose. The perfusate was equilibrated with 95% O2, 5% CO2 at 37° C. Perfusion pressure was monitored using a MLT844/D pressure transducer (Capto, Horten, Norway) connected to a PowerLab (ADInstruments, Castle Hill, Australia). The coronary effluent was collected for the measurement of coronary flow.

[2] = system: reperfusion induced arrhythmia in rats; assay: Reperfusion induced arrhythmia in rats; format: in vivo, rat; conditions: for Ventricular tachycardia Duration: vehicle 46.6 ± 17.5; for Ventricular tachycardia Incident (%): vehicle 100; for Ventricular fibrillation Duration: vehicle 124.2 ± 25.9
Procedure: Opened-chest SD (Sprague-Dawley) anesthetized rats underwent myocardial ischemia by 5 min-occlusion of the left main coronary artery and followed by 30 min-reperfusion. During the myocardium reperfusion period, heart rate, blood pressure and EKG changes were recorded. Ventricular ectopic activity was evaluated according to the diagnostic criteria advocated by the Lambeth Convention. The incidences and durations of ventricular tachycardia and ventricular fibrillation were determined.

[3] = system: ischemia-reperfusion rabbit; assay: Ischemia-reperfusion rabbit mortality; format: in vivo
[4] = Hemodynamic effects (blood pressure, heart rate) in rats; format: in vivo, rat
MCAO rats = assay: Middle cerebral artery occlusion (MCAO) cerebral ischemia lesions in rats; format: in vivo, rat
Excerpt: The same effects of preventing the ischemia-reperfusion damages with aporphine and oxoaporphine compounds also found in the other organs, such as brain. After Compound 16 or Compound 21, which is a compound of Formula B (where R1, R2, R5, R6 are OMe, R3, R4, R7 are H) was administrated to male Sprague Dawley rats, the effects of test compounds on the artery occlusive cerebral ischemia in the rats were monitored. First, permanent brain ischemia was induced by middle cerebral artery occlusion (MCAO) in the rats. At 0, 6, 24, 48, and 54 hours after the formation of middle cerebral artery occlusion (MCAO), Group I (i.e., the control group) animals were given the solvent (100% DMSO) (1 ml/kg, i.p.); Group II (i.e., the control group) animals were given the distilled water (D.W.) (1 ml/kg, i.p.);Group III animals (NCM-121) were given Compound 16 (1.5 mg/kg, i.p.); Group IV animals (NCM-124) were given Compound 21 (1.7 mg/kg, i.p); Group V animals were given MK-801 (0.3 mg/kg, i.p.), an antagonist of the N-methyl-D-aspartic acid (NMDA) receptor. There were ten rats in each group. Four days after the formation of MCAO, all the rats were sacrificed. Brain sections were made and stained with 2% cresol purple. The areas and volumes of cerebral ischemia lesions in each section were recorded.

[5] = iv infusion 0.5 ug/kg, vehicle 80
[6] = iv infusion 5 ug/kg, vehicle 80

COc1cc2c(cc1OC)-c1c(OC)c(OC)cc3c1C(C2)N(CCOc1ccccc1OC)CC3 (centres unmarked) [Compound 16, N-[2-(2-methoxyphenoxyl)]ethylnorglaucine]
coronary blood flow [1]: increasing coronary blood flow
Ventricular tachycardia Duration ([2]; iv infusion 0.5 ug/kg): 23.3 ± 4.8 s
Mortality (%) [2, 5]: 62%
Ventricular fibrillation Incident (%) [2, 5]: 85%
Ventricular tachycardia Incident (%) ([2]; iv infusion 0.5 ug/kg): 92%
Ventricular fibrillation Duration ([2]; iv infusion 0.5 ug/kg): 111.5 ± 24.4 s
Ventricular tachycardia Duration ([2]; iv infusion 5 ug/kg): 27.9 ± 7.9 s
Mortality (%) [2, 6]: 46%
Ventricular fibrillation Incident (%) [2, 6]: 82%
Ventricular tachycardia Incident (%) ([2]; iv infusion 5 ug/kg): 91%
Ventricular fibrillation Duration ([2]; iv infusion 5 ug/kg): 72.2 ± 22.9 s
Ventricular tachycardia Duration ([2]; iv infusion 50 ug/kg): 9.8 ± 8.8 s
Ventricular fibrillation Incident (%) ([2]; iv infusion 50 ug/kg, vehicle 80): 54%
Mortality (%) ([2]; iv infusion 50 ug/kg, vehicle 80, p < 0.05 vs vehicle): 23* %
Ventricular tachycardia Incident (%) ([2]; iv infusion 50 ug/kg): 85%
Ventricular fibrillation Duration ([2]; iv infusion 50 ug/kg): 42.3 ± 18.6 s
Died at ischemia period ([3]; 0.25 mg/kg, total 3, control 0 of 10): 0
Died at reperfusion period ([3]; 0.25 mg/kg, total 3, control 3 of 10): 1
Mortality (%) ([3]; 0.25 mg/kg, total 3, control 30): 33.3%
Died at ischemia period ([3]; 2.5 mg/kg, total 6, control 0 of 10): 0
Died at reperfusion period ([3]; 2.5 mg/kg, total 6, control 3 of 10): 0
Mortality (%) ([3]; 2.5 mg/kg, total 6, control 30): 0%
duration of blood pressure decrease [4]: about 45 minutes
effects on blood pressure ([4]; 0.5 mg/kg to 50 mg/kg, FIG. 5A): no significant effects
effects on heart rate ([4]; 0.5 mg/kg to 50 mg/kg, FIG. 5B): no significant effects
time to recovery of heart rates after drug application ([4]; 50 mg/kg): 45 min
heart rates after drug ([4]; 50 mg/kg, from 361.5±9.3 bpm, p<0.05): 295.4±16.8 bpm
heart rates, % of baseline values ([4]; 50 mg/kg, p<0.05): 81.5±2.8 % of baseline values
mean blood pressure after drug ([4]; at 3 minutes after drug administration, from 74.6±5.7 mmHg): 62.9±2.2 mmHg
Infarcted Volume (X ± SEM mm^3) (MCAO rats; IP 1.5 mg/kg × 6, N=10, four days after MCAO, vehicle 100% DMSO 154.17 ± 16.69): 60.14 ± 24.49* mm^3
% Decrease in total volume of ischemic lesions (MCAO rats; IP 1.5 mg/kg × 6, vs Group I vehicle (100% DMSO)): 60.99%
effects in reducing the areas and volumes of cerebral ischemia lesions as compared with MK-801 (MCAO rats; comparison in words): more significant effects
